Source: patent publication US20110190365A1, “Insecticidal 4-phenyl-1H-pyrazoles” (Bayer Crop Science AG, priority 2008, published 2011)

Experiment: log P by HPLC on a reversed-phase column (C18), EEC Directive 79/831 Annex V.A8
Type: physicochemical
Details: HCOOH
Procedure: The stated log P values were determined in accordance with EEC Directive 79/831 Annex V.A8 by HPLC (High Performance Liquid Chromatography) using a reversed-phase column (C18).

Row | Structure (SMILES) | log P (HCOOH)
1 | COC(=O)c1ccc(-n2nc(C(F)(F)F)c(I)c2N)cc1C [XI-A-083] | XI-A-083: log P (HCOOH): 3.48
2 | Cc1cc(-n2nc(C)c(-c3ccc(F)cc3F)c2N)ccc1C(=O)NCC(F)(F)C(F)F [I-A-Q2-329] | I-A-Q2-329: log P (HCOOH): 2.59
3 | Nc1c(-c2ccc(Cl)c(F)c2)c(C(F)(F)F)nn1-c1ccc(C(=O)NC2CC2)cc1 [I-A-Q2-170] | I-A-Q2-170: log P (HCOOH): 3.15
4 | Nc1c(-c2ccc(Cl)c(Cl)c2)c(C(F)(F)F)nn1-c1ccc(C(=O)NCC(F)F)cc1 [I-A-Q2-159] | I-A-Q2-159: log P (HCOOH): 3.65
5 | CC(NC(=O)c1ccc(-n2nc(C(F)(F)F)c(-c3cc(Cl)cc(Cl)c3)c2N)cc1)c1ccccc1 (centres unmarked) [I-A-Q2-150] | I-A-Q2-150: log P (HCOOH): 4.65
6 | Nc1c(-c2cc(Cl)cc(Cl)c2)c(C(F)(F)F)nn1-c1ccc(C(=O)NC2CC2)cn1 [I-A-Q2-106] | I-A-Q2-106: log P (HCOOH): 4.30
7 | Cc1cc(-n2nc(C(F)(F)F)c(-c3cc(Cl)cc(Cl)c3)c2I)ccc1C(=O)NC(C)C(F)(F)F (centres unmarked) [I-A-Q2-026] | I-A-Q2-026: log P (HCOOH): 5.44
8 | CC(NC(=O)c1ccc(-n2nc(C(F)(F)F)c(-c3ccc(Cl)c(Cl)c3)c2N)cc1)c1ccccn1 (centres unmarked) [I-A-Q2-160] | I-A-Q2-160: log P (HCOOH): 3.23
9 | Nc1c(-c2cc(Cl)cc(Cl)c2)c(C(F)(F)F)nn1-c1ccc(C(=O)NCCC(F)(F)F)cc1 [I-A-Q2-139] | I-A-Q2-139: log P (HCOOH): 4.25
10 | Cc1cc(-n2nc(C)c(-c3c(Cl)cccc3Cl)c2N)ccc1C(=O)NCc1ccccn1 [I-A-Q2-376] | I-A-Q2-376: log P (HCOOH): 1.79
11 | Cc1cc(-n2nc(C)c(-c3c(F)cccc3Cl)c2N)ccc1C(=O)NCC(F)(F)C(F)F [I-A-Q2-334] | I-A-Q2-334: log P (HCOOH): 2.59
12 | Cc1cnc(CNC(=O)c2ccc(-n3nc(C(F)(F)F)c(-c4cc(Cl)cc(Cl)c4)c3N)cc2C)cn1 [I-A-Q2-265] | I-A-Q2-265: log P (HCOOH): 3.63
13 | Cc1cc(-n2nc(C(F)(F)F)c(-c3cc(Cl)cc(Cl)c3)c2N)ccc1C(=O)NCc1cc(C(F)(F)F)c(Cl)cn1 [I-A-Q2-207] | I-A-Q2-207: log P (HCOOH): 4.83
14 | Cc1cc(CNC(=O)c2ccc(-n3nc(C(F)(F)F)c(-c4cc(Cl)cc(Cl)c4)c3N)cc2C)n(C)n1 [I-A-Q2-254] | I-A-Q2-254: log P (HCOOH): 3.58
15 | Cc1cc(-n2nc(C(F)F)c(-c3ccc(Cl)cc3)c2N)ccc1C(=O)NCC(F)(F)C(F)F [I-A-Q2-320] | I-A-Q2-320: log P (HCOOH): 3.23
16 | COC(=O)CNC(=O)c1ccc(-n2nc(C(F)(F)F)c(-c3cc(Cl)cc(Cl)c3)c2N)cc1C [I-A-Q2-030] | I-A-Q2-030: log P (HCOOH): 3.68
17 | Cc1cc(-n2nc(C(F)(F)F)c(-c3cc(Cl)cc(Cl)c3)c2N)ccc1C(=O)NCc1ccc([N+](=O)[O-])cc1 [I-A-Q2-249] | I-A-Q2-249: log P (HCOOH): 4.28
18 | Cc1cc(-n2nc(C(F)(F)F)c(-c3ccc(Br)cc3)c2N)ccc1C(=O)NCC(F)(F)C(F)F [I-A-Q2-303] | I-A-Q2-303: log P (HCOOH): 3.70
19 | Cc1cc(-n2nc(C(F)(F)F)c(-c3ccc(F)c(Cl)c3)c2N)ccc1C(=O)NCc1ccccn1 [I-A-Q2-352] | I-A-Q2-352: log P (HCOOH): 2.76
20 | CNC(=O)c1ccc(-n2nc(C(C)C)c(-c3ccc(Cl)cc3)c2N)cc1 [I-A-Q2-074] | I-A-Q2-074: log P (HCOOH): 2.76
21 | Cc1cc(-n2nc(C)c(-c3ccc(Cl)cc3)c2N)ccc1C(=O)NCC(F)(F)C(F)F [I-A-Q2-325] | I-A-Q2-325: log P (HCOOH): 2.85
22 | Cc1cc(-n2nc(C(F)(F)c3cccc(Br)c3)c(-c3cc(Cl)cc(C(F)(F)F)c3)c2N)ccc1C(=O)NCC(F)(F)C(F)F [I-A-Q2-285] | I-A-Q2-285: log P (HCOOH): 4.95
23 | Cc1cc(-n2nc(C(F)(F)F)c(-c3cc(Cl)c4c(c3)OCO4)c2N)ccc1C(=O)NCC(F)(F)C(F)F [I-A-Q2-293] | I-A-Q2-293: log P (HCOOH): 3.11

Row | Structure (SMILES) | log P (HCOOH)
24 | Cc1cc(-n2nc(C(F)(F)F)c(-c3cc(Cl)cc(Cl)c3)c2N)ccc1C(=O)NC1CCC1 [I-A-Q2-239] | I-A-Q2-239: log P (HCOOH): 4.17
25 | Cc1cc(-n2nc(C(F)(F)F)c(-c3ccccc3Br)c2N)ccc1C(=O)NCC(F)(F)C(F)F [I-A-Q2-423] | I-A-Q2-423: log P (HCOOH): 3.55
26 | Cc1cc(-n2nc(C(F)(F)F)c(-c3cc(Cl)cc(Cl)c3)c2N)ccc1C(=O)NCc1ncc(Cl)cc1C(F)(F)F [I-A-Q2-235] | I-A-Q2-235: log P (HCOOH): 4.95
27 | CCC(C)C(NC(=O)c1ccc(-n2nc(C(F)(F)F)c(-c3cc(Cl)cc(Cl)c3)c2N)cc1)C(F)(F)F (centres unmarked) [I-A-Q2-072] | I-A-Q2-072: log P (HCOOH): 5.22
28 | Cc1cc(-n2nc(C(F)(F)F)c(-c3cc(Cl)cc(Cl)c3)c2N)ccc1C(=O)NCc1ccc(C(F)(F)F)cn1 [I-A-Q2-233] | I-A-Q2-233: log P (HCOOH): 4.40
29 | CNC(=O)c1ccc(-n2nc(C(F)(F)F)c(-c3cc(Cl)cc(Cl)c3)c2N)cc1C [I-A-Q2-013] | I-A-Q2-013: log P (HCOOH): 3.59
30 | Cc1cc(-n2nc(C(F)(F)F)c(-c3cc(F)c(F)c(F)c3)c2N)ccc1C(=O)NCC(F)(F)C(F)F [I-A-Q2-316] | I-A-Q2-316: log P (HCOOH): 3.65
31 | Cc1cc(-n2nc(C(F)(F)F)c(-c3ccc(Br)cc3)c2N)ccc1C(=O)NCc1ccccn1 [I-A-Q2-346] | I-A-Q2-346: log P (HCOOH): 2.80
32 | Cc1cc(-n2nc(C)c(-c3c(F)cccc3Cl)c2N)ccc1C(=O)NCc1ccccn1 [I-A-Q2-374] | I-A-Q2-374: log P (HCOOH): 1.66
33 | Nc1c(-c2ccc(Cl)c(Cl)c2)c(C(F)(F)F)nn1-c1ccc(C(=O)NCc2ccccn2)cc1 [I-A-Q2-158] | I-A-Q2-158: log P (HCOOH): 2.85
34 | Nc1c(-c2ccc(Cl)c(Cl)c2)c(C(F)(F)F)nn1-c1ccc(C(=O)NCC(F)(F)F)cc1 [I-A-Q2-156] | I-A-Q2-156: log P (HCOOH): 3.89
35 | Cc1cc(-n2nc(C(F)F)c(-c3ccc(Cl)cc3)c2N)ccc1C(=O)NCc1ccccn1 [I-A-Q2-362] | I-A-Q2-362: log P (HCOOH): 2.27
36 | Cc1cc(-n2nc(C(F)(F)C(F)(F)F)c(-c3cc(C(F)(F)F)cc(C(F)(F)F)c3)c2N)ccc1C(=O)NCc1ccccn1 [I-A-Q2-383] | I-A-Q2-383: log P (HCOOH): 3.94
37 | CSCCNC(=O)c1ccc(-n2nc(C(F)(F)F)c(-c3cc(Cl)cc(Cl)c3)c2N)cc1C [I-A-Q2-205] | I-A-Q2-205: log P (HCOOH): 4.17
38 | Cc1cc(-n2nc(C(F)(F)F)c(-c3cc(Cl)cc(Cl)c3)c2N)ccc1C(=O)NC(C)c1nccc2ccccc12 (centres unmarked) [I-A-Q2-256] | I-A-Q2-256: log P (HCOOH): 4.64
39 | CC(NC(=O)c1ccc(-n2nc(C(F)(F)F)c(-c3cc(Cl)cc(Cl)c3)c2N)nc1)c1ccccc1 (centres unmarked) [I-A-Q2-103] | I-A-Q2-103: log P (HCOOH): 5.19
40 | CCOC(=O)c1ccc(-n2nc(C(F)(F)F)c(I)c2N)cc1 [XI-A-044] | XI-A-044: log P (HCOOH): 3.66
41 | Cc1cc(-n2nc(C(F)(F)F)c(-c3cc(Cl)cc(Cl)c3)c2N)ccc1C(=O)NC(C)c1cccnc1 (centres unmarked) [I-A-Q2-231] | I-A-Q2-231: log P (HCOOH): 2.69
42 | Cc1cc(-n2nc(C(F)(F)F)c(-c3cc(Cl)cc(Cl)c3)c2N)ccc1C(=O)NCCc1ccccn1 [I-A-Q2-226] | I-A-Q2-226: log P (HCOOH): 2.50
43 | CC(NC(=O)c1ccc(-n2nc(C(F)(F)F)c(-c3cccc(Cl)c3)c2N)cc1)c1ccccn1 (centres unmarked) [I-A-Q2-087] | I-A-Q2-087: log P (HCOOH): 2.80
44 | Nc1c(-c2cccc(F)c2)c(C(F)(F)F)nn1-c1ccc(C(=O)NCC(F)(F)F)cc1 [I-A-Q2-183] | I-A-Q2-183: log P (HCOOH): 3.11
45 | Cc1cc(-n2nc(C(F)(F)F)c(-c3ccccc3Cl)c2N)ccc1C(=O)NCC1CC1 [I-A-Q2-413] | I-A-Q2-413: log P (HCOOH): 3.37
46 | Cc1cc(-n2nc(C(F)(F)F)c(-c3cc(Cl)cc(Cl)c3)c2N)ccc1C(=O)NCc1ccc(C(F)(F)F)nc1 [I-A-Q2-060] | I-A-Q2-060: log P (HCOOH): 4.34

Same assay, conditions: HCOOH; Table 4, compounds of formula I-A-Q4

Row | Structure (SMILES) | log P (HCOOH)
47 | Nc1c(-c2cc(Cl)cc(Cl)c2)c(C(F)(F)F)nn1-c1ccc(F)c(F)c1 [I-A-Q4-109] | I-A-Q4-109: log P (HCOOH): 4.77
48 | CCc1nn(-c2ccc(Cl)cn2)c(N)c1-c1ccc(Cl)cc1 [I-A-Q4-026] | I-A-Q4-026: log P (HCOOH): 5.02
49 | COC(=O)c1ccc(-n2nc(C(F)(F)F)c(-c3cc(Cl)cc(Cl)c3)c2N)cc1SC [I-A-Q4-118] | I-A-Q4-118: log P (HCOOH): 4.93
50 | Nc1c(-c2ccc(F)c(Cl)c2)c(C(F)(F)F)nn1-c1ccc(C(=O)O)cc1 [I-A-Q4-094] | I-A-Q4-094: log P (HCOOH): 3.31
51 | COC(=O)c1ccc(-n2nc(C(F)(F)F)c(-c3cc(Cl)cc(Cl)c3)c2N)cc1C(F)(F)F [I-A-Q4-112] | I-A-Q4-112: log P (HCOOH): 5.21
52 | Nc1c(-c2ccc(Cl)cc2)c(C2CC2)nn1-c1ccc(Cl)cn1 [I-A-Q4-024] | I-A-Q4-024: log P (HCOOH): 5.36
53 | Cc1nn(-c2ccc(Cl)cn2)c(N)c1-c1c(Cl)cccc1Cl [I-A-Q4-029] | I-A-Q4-029: log P (HCOOH): 4.05

Same assay, conditions: HCOOH; Table 6, compounds of formula I-B-Q2

Row | Structure (SMILES) | log P (HCOOH)
54 | CC(NC(=O)c1ccc(-n2cc(-c3cc(Cl)cc(Cl)c3)c(C(F)(F)F)n2)c2ccccc12)C(F)(F)F (centres unmarked) [I-B-Q2-001] | I-B-Q2-001: log P (HCOOH): 4.74

Same assay, conditions: HPLC, reversed-phase C18, mobile phase with formic acid

Row | Structure (SMILES) | log P (HCOOH)
55 | N#Cc1cc(-n2nc(C(F)(F)Oc3ccccc3Cl)c(-c3cc(Cl)cc(C(F)(F)F)c3)c2N)ccc1-n1cncn1 [I-A-Q1-073] | I-A-Q1-073: log P (HCOOH): 4.51
56 | N#Cc1cc(-n2nc(C(F)(F)F)c(-c3cc(C(F)(F)F)cc(C(F)(F)F)c3)c2N)ccc1-n1cncn1 [I-A-Q1-027] | I-A-Q1-027: log P (HCOOH): 4.07
57 | Cc1nn(-c2ccc(-n3cncn3)c(C#N)c2)c(N)c1-c1ccc(F)cc1F [I-A-Q1-057] | I-A-Q1-057: log P (HCOOH): 2.35

Same assay, conditions: HPLC, reversed-phase C18, mobile phase with formic acid; read-out: log P (HCOOH)

Row | Structure (SMILES) | chromatographic logP
58 | CCOC(=O)c1ccc(-n2nc(C(F)(F)F)c(-c3ccc(Cl)c(Cl)c3)c2N)cc1C [I-A-Q4-013, Ethyl 4-[5-amino-4-(3,4-dichlorophenyl)-3-(trifluoromethyl)-1H-pyrazol-1-yl]-2-methylbenzoate] | 5.24
59 | COC(=O)c1ccc(NN)cc1C [VII-A-008, Methyl 4-hydrazino-2-methylbenzoate] | 0.4
